The text below walks through data of PMC2722925 (Biochemistry, 2008).

Assay [1] deals with T1, EPPasePGM (EPPase PGM domain, residues 69 to 330) (Bombyx mori, UniProt Q7YTB0).
T1 sequence (Q7YTB0 69-330 isoform Q7YTB0-1): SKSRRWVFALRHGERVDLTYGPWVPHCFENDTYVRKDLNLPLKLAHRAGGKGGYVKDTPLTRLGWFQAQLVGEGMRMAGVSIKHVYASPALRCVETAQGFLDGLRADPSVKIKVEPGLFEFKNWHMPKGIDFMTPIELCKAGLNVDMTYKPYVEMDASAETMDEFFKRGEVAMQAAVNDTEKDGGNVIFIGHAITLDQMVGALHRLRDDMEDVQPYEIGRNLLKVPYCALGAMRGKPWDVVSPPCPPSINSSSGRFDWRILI
The assay is described as follows: Phosphatase activity. As to conditions: for Dephosphorylation by EPPasePGM (substrate specificity): 50 nM EPPasePGM, 1 mM compound, pH 7.5, pNPP as positive control, data not shown; for Km: substrate of wild-type EPPasePGM; for Km / kcat: pH 7.5, 37 °C; for kcat: substrate turnover by wild-type EPPasePGM, 50 nM enzyme.

The test system of assay [2] is EPPase. The assay is described as follows: Phosphatase activity of native or recombinant full-length EPPase. In kind it is biochemical, Bombyx mori. Conditions: E22P versus pTyr-peptide.
Assay [3] concerns EPPase. Conditions: native or recombinant full-length EPPase; ref [9]; cited from earlier work.
Another assay has as its target T2, EPPasePGM (Bombyx mori, UniProt Q7YTB0).
T2 sequence (Q7YTB0 69-330 isoform Q7YTB0-1): T1 sequence (Q7YTB0 69-330 isoform Q7YTB0-1)
The assay is described as follows: Inhibition of EPPasePGM pNPP hydrolysis. In kind it is biochemical.

Assay [4] deals with T3, EPPasePGM K292S (Bombyx mori, UniProt Q7YTB0, K622S). The class given is biochemical.
The next assay concerns the target Sts-1PGM (Mus musculus, UniProt Q8BGG7). The assay is described as follows: Phosphatase activity. As to conditions: for Km: substrate of Sts-1PGM; for kcat: substrate turnover by Sts-1PGM. In kind it is biochemical.
Another assay has as its target EPPasePGM K196S (Bombyx mori, UniProt Q7YTB0, K526S). The class given is biochemical.
Assay [5] concerns the target T3, EPPasePGM K292S. The assay is described as follows: biochemical.
The target of a further assay is EPPasePGM K196D (Bombyx mori, UniProt Q7YTB0, K526D). The assay is described as follows: Phosphatase activity of EPPasePGM K196D mutant. The class given is biochemical.
[6] abbreviates: IC50, 1 mM pNPP, 50 nM EPPasePGM, 37 °C, pH 7.5.
Setting [7] is: IC50, 1 mM pNPP, 50 nM EPPasePGM, 37 °C, text values in mM.

Several values for one entry are separate records, joined by “and”; a condition that tells them apart may be missing. Equal values may be shown once. Read-outs that look alike come from different tables or passages of the source.

Sts-1PGM, sequence (Q8BGG7 369-638 limits assumed): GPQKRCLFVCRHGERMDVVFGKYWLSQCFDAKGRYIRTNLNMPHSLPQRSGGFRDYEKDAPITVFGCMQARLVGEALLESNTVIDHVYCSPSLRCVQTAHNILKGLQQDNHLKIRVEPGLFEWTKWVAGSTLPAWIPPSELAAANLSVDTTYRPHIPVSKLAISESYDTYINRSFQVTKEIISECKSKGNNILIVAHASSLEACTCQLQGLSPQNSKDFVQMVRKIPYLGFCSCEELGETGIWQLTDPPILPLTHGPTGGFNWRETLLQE
EPPasePGM K196S, sequence (Q7YTB0 399-660 K526S): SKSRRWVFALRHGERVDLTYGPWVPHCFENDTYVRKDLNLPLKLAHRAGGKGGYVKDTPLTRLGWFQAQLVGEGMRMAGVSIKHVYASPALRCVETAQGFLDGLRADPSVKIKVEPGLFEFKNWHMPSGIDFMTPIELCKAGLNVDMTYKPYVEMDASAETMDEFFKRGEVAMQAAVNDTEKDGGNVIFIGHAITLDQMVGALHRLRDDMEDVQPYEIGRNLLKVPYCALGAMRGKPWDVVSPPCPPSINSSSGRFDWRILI
T3 sequence (Q7YTB0 399-660 K622S): as the sequence (Q7YTB0 399-660 K526S) above, with S128K, K224S counted along it
EPPasePGM K196D, sequence (Q7YTB0 399-660 K526D): as the sequence (Q7YTB0 399-660 K526S) above, with S128D counted along it

In the case of `O=P(O)(O)Oc1cccc2ccccc12` [1-naphtyl phosphate], the “Dephosphorylation by EPPasePGM (substrate specificity)” value (shortened to “Dephosphorylation by EPPasePGM”) in assay [1] is listed as “failed to dephosphorylate”.

Usually Km stands for the substrate concentration at which the rate is half of its maximum. The term kcat denotes the maximal rate divided by the concentration of active sites. As for `C[C@H](C(CCC(C)(C)O)OP(=O)(O)O)[C@H]1CCC2(O)C3=CC(=O)[C@@H]4C[C@@H](O)[C@@H](O)C[C@]4(C)[C@H]3CC[C@]12C` (stereo partly drawn) [E22P, ecdysone 22-phosphate], in the assay on EPPase [2], the “kcat for E22P relative to pTyr-peptide (times lower)” value turned out to be 8. For the same compound, in the assay with EPPase [3], the Km was 5.9 µM and the kcat is 0.94 s⁻¹.

`O=C(O)[C@H](O)[C@@H](O)C(=O)O` [L-tartrate]: the “Inhibition of pNPP hydrolysis by EPPasePGM” value on EPPasePGM (concentrations as high as 100 mM) is recorded as “did not inhibit”.

Usually Ki stands for the dissociation constant of the complex between target and ligand, obtained from inhibition or displacement. Lower therefore signals tighter binding. One may read the IC50 as the concentration that inhibits the measured activity by half. With `O=P(O)(O)O` [Phosphate], at EPPasePGM, the Ki is 25800 µM. Besides, the IC50 was determined as 47.1 mM against EPPasePGM (setting [6]) and 47 ± 11 mM on EPPasePGM (setting [7]).

`C[C@]12C=CC(=O)C=C1CC[C@@H]1[C@@H]2[C@@H](O)C[C@@]2(C)[C@H]1CC[C@]2(O)C(=O)COP(=O)([O-])[O-].[Na+].[Na+]` [Prednisolone 21P, prednisolone 21-phosphate disodium salt]: the Km on EPPasePGM K292S [4] came out at 510 ± 230 µM; in assay [1] it was 650 ± 170 µM; at Sts-1PGM it was 450 ± 90 µM; on EPPasePGM K196S it was 1060 ± 240 µM. Besides, the kcat at EPPasePGM K292S [4] turned out to be 4.2 s⁻¹; in assay [1], 5.9 s⁻¹; on Sts-1PGM it was 0.15 s⁻¹; at EPPasePGM K196S, 6.1 s⁻¹.

`[O]=[W](=[O])([OH])[OH]` [Tungstate]: the figures for the IC50 against EPPasePGM K292S [5] and against EPPasePGM were 70 µM and 0.052 mM, respectively. Also, the Ki at EPPasePGM is 34 µM.

As to `[O]=[V]([OH])([OH])[OH]` [Vanadate], on EPPasePGM, the Ki is 1900 µM. Besides, the IC50 at EPPasePGM (setting [6]) worked out at 2.91 mM; on EPPasePGM (setting [7]) it was 2.9 ± 0.43 mM.

For the compound `O=C(CO)[C@@H](O)[C@H](O)[C@H](O)COP(=O)(O)O` [fructose-6-phosphate], in assay [1], the “Dephosphorylation by EPPasePGM” value is given as “failed to dephosphorylate”.

With `O=[N+]([O-])c1ccc(OP(=O)(O)O)cc1` [pNPP, para-nitrophenylphosphate], the Km with EPPase [3] was 13100 µM; at EPPasePGM K292S [4], 2400 ± 200 µM; in assay [1] it was 1900 ± 200 µM; on Sts-1PGM it was 500 ± 70 µM; on EPPasePGM K196S, 2700 ± 160 µM; at EPPasePGM K196D, 2500 ± 200 µM. In addition, the kcat in the assay on EPPase [3] is 135 s⁻¹; at EPPasePGM K292S [4] it was 6.3 s⁻¹; in assay [1], 11.7 ± 0.6 s⁻¹ and 11.7 s⁻¹; on Sts-1PGM it was 70.1 s⁻¹; on EPPasePGM K196S, 5.0 s⁻¹; at EPPasePGM K196D, 2.4 s⁻¹. The “kcat of EPPasePGM relative to Sts-1PGM (fold slower)” value in assay [1] (pNPP hydrolysis) was determined as 6. Besides, the “kcat/Km of EPPasePGM relative to Sts-1PGM (fold slower)” value in [1] (pNPP hydrolysis) is on record as 20.

`C[C@H]1C[C@H]2[C@@H]3CCC4=CC(=O)C=C[C@]4(C)[C@@]3(F)[C@@H](O)C[C@]2(C)[C@@]1(O)C(=O)COP(=O)([O-])[O-].[Na+].[Na+]` [β-Methasone 21P, β-methasone 21-phosphate disodium salt]: in assay [1], the Km was determined as 730 ± 320 µM and the kcat is 10.2 s⁻¹.

For `O=P(O)(O)OC[C@H]1O[C@@H](O)[C@H](O)[C@@H](O)[C@@H]1O` [β-glucose-6-phosphate], in assay [1], the “Dephosphorylation by EPPasePGM” value is reported as “failed to dephosphorylate”.

For the compound `O=P(O)(O)OC(CO)CO` [β-phospho-glycerol], the “Dephosphorylation by EPPasePGM” value in [1] is reported as “failed to dephosphorylate”.

Turning to `O=P(O)(O)OC[C@H]1O[C@@H](O)[C@H](O)[C@@H]1O` [β-ribose-5-phosphate], the “Dephosphorylation by EPPasePGM” value in assay [1] is “failed to dephosphorylate”.
